Experimental data as given in the supplement of paper PMC8671470.

Columns and labels:
Details in all cases: 72 h
[1] = system: HEL; experiment: cell viability (% survival relative to DMSO control, bortezomib = 0%); higher = less cytotoxic
Procedure, shortened: (§1)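 After 72 h at 37 °C with 5% CO2, cell viability in 384-well plates was measured by CellTiter-Glo luminescence. The plates held compounds pre-printed at 1, 10, 100, 1000 or 10000 nM in duplicate, and cells from 10 AML and 5 CML lines seeded at densities titrated to linear growth. Percent survival is the duplicate mean, normalised to vehicle as 100% and a 10 µM positive control as 0%.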

[2] = system: Mono-Mac-6; experiment: as above
Procedure, shortened: as §1

[3] = system: SHI-1; experiment: as above
Procedure, shortened: as §1

[4] = system: HL-60; experiment: area under dose-response curve (viability, 1 nM-10 uM) (fraction (0-1)); higher = more sensitive
Procedure, shortened: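 A rescreen of the full library used HL-60 cells in RPMI 1640 with 10% FBS on 384-well plates, run in duplicate at five tenfold concentrations (1–10,000 nM). Each screen included DMSO or 100 nM of one of three metabolic inhibitors and ran 72 h at 37 °C, 5% CO2. CellTiter-Glo viability was scaled between DMSO and 10 μM proteasome-inhibitor wells. Any area under the curve comes from four-parameter log-logistic fits with drc and PharmacoGx.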

[5] = co-treatment: GSK2194069 100 nM
[6] = co-treatment: pictilisib 100 nM

SMILES	cell viability ([1]; 1 nM) [%]	cell viability ([1]; 10 nM) [%]	cell viability ([1]; 100 nM) [%]	cell viability ([1]; 1000 nM) [%]	cell viability ([1]; 10000 nM) [%]	cell viability ([2]; 1 nM) [%]	cell viability ([2]; 10 nM) [%]	cell viability ([2]; 100 nM) [%]	cell viability ([2]; 1000 nM) [%]	cell viability ([2]; 10000 nM) [%]	cell viability ([3]; 1 nM) [%]	cell viability ([3]; 10 nM) [%]	cell viability ([3]; 100 nM) [%]	cell viability ([3]; 1000 nM) [%]	cell viability ([3]; 10000 nM) [%]	area under dose-response curve ([4]; co-treatment: AZD3965 100 nM)	area under dose-response curve ([4]; co-treatment: DMSO vehicle)	area under dose-response curve [4, 5]	area under dose-response curve [4, 6]
Cl.NC(CCC(=O)Nc1ccc([N+](=O)[O-])cc1)C(=O)O (centres undefined) [GPNA]	95.2	104	106	91.5	104	92.2	96.4	105	98.3	104	107	91.6	94.9	99.5	98.3	< 0.0301	< 0.0301	< 0.0301	< 0.0301
CC(C)c1onc(-c2c(Cl)cccc2Cl)c1COc1ccc(/C=C/c2cccc(C(=O)O)c2)c(Cl)c1 [GW4064]	85.7	87.2	86.8	87	66.7	104	87.6	95.9	86.7	67.7	110	99.3	101	95.9	53	< 0.0301	< 0.0301	–	< 0.0301
CC1(C)[C@@H](O[C@H]2O[C@H](C(=O)O)[C@@H](O)[C@H](O)[C@H]2O[C@@H]2O[C@H](C(=O)O)[C@@H](O)[C@H](O)[C@H]2O)CC[C@]2(C)[C@H]3C(=O)C=C4[C@@H]5C[C@@](C)(C(=O)O)CC[C@]5(C)CC[C@@]4(C)[C@]3(C)CC[C@@H]12 [Glycyrrhizin]	99.8	108	107	109	84.8	94.1	103	104	94.8	89	95.5	100	114	105	97.2	< 0.0301	< 0.0301	< 0.0301	< 0.0301
Nc1ccccc1C(=O)C[C@H](N)C(=O)O [L-Kynurenine]	117	80.1	102	104	92.7	101	91.7	102	93.8	95.9	120	102	90.6	104	98.4	< 0.0301	< 0.0301	< 0.0301	< 0.0301
N/C(=N\CCCC(N)C(=O)O)N[N+](=O)[O-] [L-NNA]	103	98.5	105	91.6	95.6	89.4	95.8	92.1	84.2	91	98.8	95.6	109	96.1	96.7	< 0.0301	< 0.0301	< 0.0301	< 0.0301
CC[C@H](C)C(=O)O[C@H]1C[C@@H](C)C=C2C=C[C@H](C)[C@H](CC[C@@H]3C[C@@H](O)CC(=O)O3)[C@H]21 [Lovastatin]	101	87.8	114	92.6	86.3	97.4	101	95.7	96.8	92.2	97.5	97.6	104	93.8	92.5	< 0.0301	< 0.0301	< 0.0301	0.0554
C[C@](N)(Cc1ccc(O)cc1)C(=O)O [Metirosine]	101	92.6	99.6	94.7	108	99.2	101	107	92.9	104	103	105	101	101	91.4	< 0.0301	< 0.0301	< 0.0301	< 0.0301
CCCCN1C[C@H](O)[C@@H](O)[C@H](O)[C@H]1CO [Miglustat]	92.6	103	95.2	101	93.6	82.9	90.4	92.4	95.4	92.7	106	93	102	98.6	88.7	< 0.0301	< 0.0301	< 0.0301	< 0.0301
CCCCC/C=C\C/C=C\C/C=C\C/C=C\CCCCN1C(=O)C=CC1=O [N-Arachidonylmaleimide]	98.7	102	97.9	103	89.7	94	101	91.1	107	101	100	102	96.7	104	88.9	< 0.0301	< 0.0301	< 0.0301	< 0.0301
CCCCCCCCCCC[C@@H](C[C@@H]1OC(=O)[C@H]1CCCCCC)OC(=O)[C@H](CC(C)C)NC=O [Orlistat]	102	107	95.3	101	90.8	114	91.1	97.7	103	87.7	101	102	106	108	102	< 0.0301	< 0.0301	0.0449	< 0.0301
COc1ccc(C(=O)Nc2c(Cl)cncc2Cl)cc1OC1CCCC1 [Piclamilast]	95.3	108	102	119	109	93.6	107	80.6	100	87.7	94.1	105	106	99.3	113	< 0.0301	< 0.0301	< 0.0301	< 0.0301
O=C(NNc1ccccc1)c1ccncc1 [PluriSln 1]	95.1	99.2	96.8	105	78.1	106	103	104	110	87.2	91.5	95.5	93	105	92.6	0.0541	0.0377	< 0.0301	< 0.0301
CC(C)c1nc(CN(C)C(=O)N[C@H](C(=O)N[C@@H](Cc2ccccc2)C[C@H](O)[C@H](Cc2ccccc2)NC(=O)OCc2cncs2)C(C)C)cs1 [Ritonavir]	90.8	99.8	107	94.2	87.8	91.7	98.6	97.6	88.1	79	100	101	109	104	83.1	< 0.0301	< 0.0301	–	< 0.0301
O=C(O)c1cc(N=Nc2ccc(S(=O)(=O)Nc3ccccn3)cc2)ccc1O [Sulfasalazine]	111	91.9	114	94	111	105	92.7	120	103	104	107	87.6	114	97.8	95.7	< 0.0301	< 0.0301	< 0.0301	< 0.0301
O[C@H]1[C@H]2[C@H](O)CCCN2C[C@H]1O [Swainsonine]	99.2	83.9	108	97.3	92.5	101	106	106	90	102	93.8	110	109	108	102	< 0.0301	< 0.0301	< 0.0301	< 0.0301
Cc1coc2c1C(=O)C(=O)c1c-2ccc2c1CCCC2(C)C [Tanshinone IIA]	91	100	107	111	97.9	90.9	99	102	91.1	87.7	106	98.5	98.8	107	96.1	< 0.0301	< 0.0301	< 0.0301	< 0.0301
Cc1cn([C@H]2C[C@H](O)[C@@H](COP(=O)(O)OP(=O)(O)O)O2)c(=O)[nH]c1=O [Thymidine diphosphate]	99.1	89.4	93.2	106	103	95.1	88.1	105	91.8	92.5	96.2	89.3	110	91.8	107	< 0.0301	< 0.0301	< 0.0301	< 0.0301
CN(C)c1cc(NC(=O)CNC(C)(C)C)c(O)c2c1C[C@H]1C[C@H]3[C@H](N(C)C)C(=O)C(C(N)=O)C(=O)[C@@]3(O)C(=O)C1C2=O (some centres undefined) [Tigecycline]	110	92.4	101	99.7	71.6	112	108	100	105	93.7	113	97.9	97.1	115	93.4	< 0.0301	< 0.0301	< 0.0301	< 0.0301
COc1ccc2c(C(=S)N(C)CC(=O)O)cccc2c1C(F)(F)F [Tolrestat]	91.2	98.9	95	93	101	86.5	113	94.1	113	95.4	98.6	104	88.1	108	101	< 0.0301	< 0.0301	< 0.0301	< 0.0301
NC(=O)c1cccc(-c2cccc(OC(=O)NC3CCCCC3)c2)c1 [URB-597]	102	104	103	110	95.2	102	99.6	97.2	117	123	93.9	86.1	89.4	100	110	–	–	–	–
O=C1O[C@H]([C@@H](O)CO)C(O)=C1O [Vitamin C (ascorbate)]	103	106	98.9	107	113	103	109	98.8	101	108	110	106	105	102	114	–	–	–	–
